How the values were obtained:
[1] = system: HCT-116 human colon carcinoma xenograft; assay: In vivo tumor efficacy model, mouse HCT116 human colon carcinoma xenograft
Protocol: In Vivo Tumor Efficacy Model
HCT-116 (1×10^6) cells in McCoy's 5A medium were aseptically injected into the subcutaneous space in the right dorsal flank of female CD-1 nude mice (age 8 weeks, Charles River) using a 23-ga needle. Tumor volumes were calculated using standard procedures (0.5×(length×width^2)). […]. Doses (0.1 mL) were administered via 22 gauge oral gavage needle. Control animals received vehicle alone. Animals were dosed once daily for 21 days, and there were 10 animals in each group. Tumor size and body weight were measured twice per week. Compounds 1 and iii were well-tolerated at all doses in this study. […]

[2] = system: SW480 cells; assay: BrdU cell proliferation assay in SW480 cells
Protocol: BrdU Cell Proliferation Assay
(§1) Cell proliferation of each cell line was measured using the cell proliferation enzyme-linked immunosorbent assay (ELISA), 5-bromo-2′-deoxyuridine (BrdU) colorimetric kit according to the manufacturer's recommendations. The assay measures cell proliferation by quantifying BrdU incorporation into replicating deoxyribonucleic acid (DNA). Briefly, each well was incubated with 10 μL of BrdU labeling reagent for 2 hours at 37° C. in a humidified cell culture chamber. After aspiration of the labeling media, the cells were fixed and denatured by adding 200 μL of ethanol to each well and incubated for 30 minutes at room temperature.
(§2) Concentration response curves were generated by calculating the decrease in optical density in samples treated with test compound relative to the DMSO-treated controls.

[3] = system: HCT116 cells; assay: BrdU cell proliferation assay in HCT116 cells
Protocol: BrdU Cell Proliferation Assay
as §1, §2

[4] = target: T1, Aurora A (Homo sapiens, UniProt O14965); assay: pT288 Aurora A autophosphorylation assay; assay type: cell-based; settings: HCT-116 cells, 60 minutes treatment
T1 construct: Human tumor cells (HCT-116, obtained from ATCC) were grown on 96-well dishes; host or cells: HCT-116
T1 sequence (O14965 1-403): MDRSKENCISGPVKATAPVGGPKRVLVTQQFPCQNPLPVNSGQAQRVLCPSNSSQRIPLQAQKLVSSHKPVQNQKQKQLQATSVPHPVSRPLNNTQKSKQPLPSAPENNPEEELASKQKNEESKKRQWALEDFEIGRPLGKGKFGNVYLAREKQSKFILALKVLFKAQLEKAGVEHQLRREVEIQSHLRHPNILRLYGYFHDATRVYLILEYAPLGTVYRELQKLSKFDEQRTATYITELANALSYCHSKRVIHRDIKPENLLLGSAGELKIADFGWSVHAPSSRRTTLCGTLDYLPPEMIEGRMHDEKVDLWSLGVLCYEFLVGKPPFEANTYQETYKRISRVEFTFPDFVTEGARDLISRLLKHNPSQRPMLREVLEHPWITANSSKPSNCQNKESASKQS
Protocol: pT288 Aurora A Autophosphorylation Assay.
After incubation, the growth medium was replaced with 75 μL of fresh media and 25 μL of test compound was added to the cells in two-fold serial dilutions in dimethyl sulfoxide (DMSO) to achieve final concentrations ranging from 5 to 0.010 μM. Test compound at each dilution was added as replicates in 4 rows on the dish, and DMSO (20 nM) was added to each well of two columns for the untreated controls. The cells were treated with test compound or DMSO for 60 minutes at 37° C. in a humidified cell culture chamber. Cells were then fixed with 4% para-formaldehyde in phosphate-buffered saline (PBS) for 10 minutes, permeated with 0.5% Triton X-100 in PBS for 10 minutes, and washed twice in PBS.
Cells were visualized using a Discovery-1 High Content Imaging System. Images from nine or sixteen sites per well were captured at 200× magnification. Inhibition of Aurora A was determined by measuring pT288 (Aurora A autophosphorylation) fluorescent intensity within MPM2 immunopositive (mitotic) cells using Metamorph software. Concentration response curves were generated by calculating the decrease of pT288 fluorescent intensity in test compound-treated samples relative to the DMSO-treated controls, and growth inhibition (IC50) values were determined from those curves.

[5] = oral, once daily for 21 days, at each dose

Structure (SMILES) | in vivo potency compared with compound iii ([1]; mouse HCT116 human colon carcinoma xenograft model) | tolerability ([1]; mouse, in vivo, po) | tumor growth delay (TGD) compared with compound iii [1, 5] | tumor growth inhibition (TGI) compared with compound iii [1, 5] | BrdU SW480 LD50 [2] | BrdU HCT116 LD50 [3] | IC50 [4] | tolerability ([1]; oral, once daily for 21 days, all doses, female CD-1 nude mice)
COc1cc(Nc2ncc3c(n2)-c2ccc(Cl)cc2C(c2c(F)cccc2OC)=NC3)ccc1C(=O)O [Compound 1, 4-{[9-chloro-7-(2-fluoro-6-methoxyphenyl)-5H-pyrimido[5,4-d][2]benzazepin-2-yl]amino}-2-methoxybenzoic acid] | more potent than compound iii | well-tolerated | longer tumor growth delay | greater tumor growth inhibition | 0.41 µM | 0.03 µM | – | –
O=C(O)c1ccc(Nc2ncc3c(n2)-c2ccc(Cl)cc2C(c2ccccc2F)=NC3)cc1 [i] | – | – | – | – | 6.502 µM | 0.707 µM | – | –
COc1cc(Nc2ncc3c(n2)-c2ccc(Cl)cc2C(c2ccccc2F)=NC3)ccc1C(=O)O [ii] | – | – | – | – | 7.579 µM | 0.758 µM | 150 nM | –
COc1cccc(F)c1C1=NCc2cnc(Nc3ccc(C(=O)O)cc3)nc2-c2ccc(Cl)cc21 [iii] | – | – | – | – | 0.94 µM | 0.13 µM | 18 nM | well-tolerated

From patent US11958855B2, “Aurora kinase inhibitors for inhibiting mitotic progression” (Millennium Pharmaceuticals, Inc., priority 2006, dated 2024)
